EP0462621A2, “Use of particular compounds for manufacture of pharmaceutical formulations for treatment against various parasites, mycoplasmas, other indications and other infections” (Prendergast, Patrick Thomas, priority 1990, dated 1991)

Legend:
[1] = tested on: T.b. brucei, T.b. gambiense and T.b. rhodesiense; test: Cultivated bloodstream trypomastigote (TRY) in-vitro screen; format: cell-based
Excerpt: Culture systems developed in the last decade have used mammalian cell feeder layers to support the growth of dividing populations of bloodstream trypomastigotes of T. brucei spp. Some of these systems have been used in chemotherapy studies, including; (1) bovine fibroblast culture - T. brucei models to test some standard and experimental compounds, (2) murine bone marrow culture - T.b. gambiense model to screen inosine analogues and platinum and hypolipidemic compounds, and (3) Microtus embryonic fibroblast culture (MEF) - T.b. rhodesiense model to test standard and experimental drugs. These systems give a good indication of in-vivo activity (see Table 3). They measure activity against dividing cells rather than specific macromolecular synthesis pathways and can be readily established in micro-titre plates. The MEF and bone marrow cell feeder layers can be used to grow a range of strains of T. brucei spp., offering the possibility of examining variations in drug susceptibility and resistance between strains. The presence of a feeder layer, however, limits the opportunities for the automation of these systems.
(§1) In-vitro and in-vivo models were used to test activities of a selection of many compounds. Those activities are summarized in Tables 1-3, showing variation between systems and species. Activities measured in the MP mo and HM mo models have shown the best correlation with results obtained in hamster and mouse models.

[2] = tested on: T.b. brucei, T.b. gambiense and T.b. rhodesiense; test: African trypanosomiasis mouse model, in-vivo
Experimental: (§2) Primary screening for new trypanocides has made extensive use of rodent systems, in which host survival time is a simple indicator of drug activity. In-vitro screens have used a variety of trypomastigote types (see Table 3, below). […] Most early in-vitro screens employed a short test in which bloodstream trypomastigotes were isolated from an infected rodent and maintained for up to 24 h in a simple drug-containing media. Two significant modifications of this technique include maintaining isolated bloodstream trypomastigotes in drug-containing media for 3-4 hours at 37° C in micro-titre plates and their subsequent viability assessed by the uptake of radiolabelled precursors or motility and infectivity to mice.
as §1

[3] = tested on: L major/L mexicana; test: Leishmania mouse/hamster models, in-vivo; conditions: Lm. Also: key: - no/poor activity,; + fair/moderate activity,; ++ good/excellent activity.
Excerpt: as §1

[4] = tested on: L donovani; test: Leishmania mouse/hamster models, in-vivo; conditions: Ld. Also: key: - no/poor activity,; + fair/moderate activity,; ++ good/excellent activity.
Excerpt: as §1

[5] = tested on: L major/L mexicana; test: Amastigotes (AM) in mouse or human macrophages (mos), in-vitro; format: cell-based; conditions: Lm., Amastigote
Excerpt: (§3) Amastigotes of Leishmania can be cultivated in a wide range of mammalian cells, some of which may be used in in-vitro screens. These include (1) a Sticker dog sarcoma (fibroblast) cell line, (2) transformed rodent macrophage cell lines, (3) primary isolated mouse peritoneal macrophages (MP mo), and (4) human monocyte-derived macrophages (HM mo). The methods are similar for all models. Amastigote or promastigote infected cells are maintained in a medium containing the drug for 4-7 days, at 37 C for L. donovani and 33-35 C for L. major and L. mexicana. Drug activity is then assessed by counting (I) the number of infected host cells and/or (II) the number of amastigotes/100 host cells.
as §1

[6] = tested on: L donovani; test: as above; format: cell-based; conditions: Ld., Amastigote
Excerpt: as §3, §1

[7] = tested on: T.b. brucei, T.b. gambiense and T.b. rhodesiense; test: Isolated bloodstream trypomastigote (TRY) in-vitro screen; format: cell-based
Experimental: as §2
In-vitro studies on isolated bloodstream trypomastigotes were also used in the rational biochemical approaches towards the chemotherapy of T. brucei infections involving inhibitors of carbohydrate catabolism salicyl hydroxamic acid plus glycerol), of polyamine synthesis (methylgyoxal bis-guanylhydrazone and - DFMO), and of surface coat glycoprotein synthesis (Tunicamycin). In these studies, activity of the compounds are shown in-vitro and in-vivo, whereas the sensitivity of isolated bloodstream trypomastigotes to toxic oxygen radicals generated by naphthoquinones was not shown by the parasites in mice. The activity of the standard anti-trypanosomals-melarsoprol, pentamidine and suramin and tested compounds according to the present invention in in-vitro systems is shown in Table 3.
as §1

[8] = tested on: L major/L mexicana; test: Leishmania promastigote (PRO) in-vitro screen; format: cell-based; conditions: Lm.
Excerpt: (§4) Following initial infection, the amastigote is the only form present in the mammalian host, surviving and dividing in various macrophage populations. Differences between the promastigote and amastigote in form and habitat are not matched by known biochemical dissimilarities. However, the drug susceptibility of the cultured promastigote, used in many early chemotherapy screens, contrasts markedly with that of the amastigote (see Table 1, below), most importantly to the clinically used pentavalent antimonials - sodium stibogluconate (Pentostam) and meglumine antimoniate (Glucantime).
as §3, §1

[9] = tested on: L donovani; test: Leishmania promastigote (PRO) in-vitro screen; format: cell-based; conditions: Ld.
Excerpt: as §4, §3, §1

[10] = tested on: L major/L mexicana; test: Amastigote-promastigote (AM-PRO) transformation, in-vitro; format: cell-based; conditions: Lm.
[11] = tested on: L major/L mexicana; test: Amastigotes (AM) in cell lines, in-vitro; format: cell-based; conditions: Lm., Amastigote; also: key: - no/poor activity,; + fair/moderate activity,; ++ good/excellent activity
Excerpt: as §3, §1

[12] = tested on: L donovani; test: Amastigotes (AM) in cell lines, in-vitro; format: cell-based; conditions: Ld., Amastigote; also: key: - no/poor activity,; + fair/moderate activity,; ++ good/excellent activity
Excerpt: as §3, §1

[13] = tested on: L donovani; test: Amastigote-promastigote (AM-PRO) transformation, in-vitro; format: cell-based; conditions: Ld.
[14] = tested on: T.b. brucei, T.b. gambiense and T.b. rhodesiense; test: Procyclic trypomastigote (TRY) in-vitro screen; format: cell-based; also: key: - no/poor activity,; + fair/moderate activity,; ++ good/excellent activity
Experimental: as §2, §1

[15] = tested on: B lymphocytes; test: Lymphocyte blastogenesis assay, B lymphocytes (PWM); format: cell-based, human
Experimental: (§5) T and B lymphocytes from normal human donors were incubated for 30 minutes at various dose levels of the compounds indicated. The lymphocytes were added in triplicate wells in gentamicin and phytohemagglutinin (PHA) (a T cell mitogen), pokeweed mitogen (PWM) (a B cell mitogen) and allogeneic mononuclear cells (mixed leukocyte cultures; MLC) or media containing the above additives. The lymphocyte blastogenesis assay is described in detail below.
(§6) The data are represented as the mean of the three replicates. The results are presented in Charts la(e) (i) and la(e) (ii) (Figs. 1 and 2). […] A reduction of both T lymphocytes' abilities to proliferate was obtained when 100 u.M or greater concentrations of IPA was added to the cell cultures. Proliferative activity of T lymphocytes by 25% at the 30 u.M concentration of IPA in the experiment.
(§7) • 1. Mononuclear cells are separated from whole blood by differential centrifugation using a synthetic separation medium, or are thawed from a cryopreserved preparation. The cells are washed and resuspended in media (RPMI - 1640, L-Glutamine 2mM, Herpes Buffer 25mM, Gentamicin 50 ug/ml, Human AB Serum-heat inactivated (56°, 30°) 20%). • 2. A viable cell count is determined. • 3. Cell concentration is adjusted to 2 x 10^6 /ml in media. • 4. The cell suspension is added to wells of a 96-well flat bottom plate in 0.1 ml aliquots (2 x 10^5 cells). • 5. The selected mitogens and/or antigens (in media without serum) are added to the cells in the wells also in 0.1 ml aliquots. • 6. The cultures are incubated for 3-7 days (depending upon the mitogen or antigen) at 37° C in a humidified 5% C02 atmosphere. • 7. Six to eight hours before termination of cultures 0.05 ml (1 µCi) of ^3HTdR sp. act 6.7 Ci/mM (20 µCi/ml stock) is added to each well. • 8. At termination of cultures the cells are harvested onto strips of scintillation-grade fibreglass paper using a multiple sample harvester. • 9. Perforated disks from the fibreglass paper of the harvested cultures are placed each into scintillation vials to which is then added 5 ml of toluene based scintillation cocktail. • 10. The vials are counted in a liquid scintillation counter for one minute where the amount of incorporated ^3HTdR is determined.
(§8) net CPM = xCPM of mitogen/antigen cultures - xCPM of media cultures.

[16] = tested on: HIV-I; test: Experiment la(a): macrophage cells, HIV-I, p24 antigen capture radio-immunoassay; format: cell-based; conditions: for TITER: control titer 100000; for wells positive for HIV-I p24, LOG VIRUS DILUTION -1 / wells positive for HIV-I p24, LOG VIRUS DILUTION -2 / wells positive for HIV-I p24, LOG VIRUS DILUTION -3 / wells positive for HIV-I p24, LOG VIRUS DILUTION -4 / wells positive for HIV-I p24, LOG VIRUS DILUTION -5 / wells positive for HIV-I p24, LOG VIRUS DILUTION -6: duplicate runs
Experimental: Fresh macrophage cultures were obtained by incubation of mononuclear cells obtained from a leukopak directly in the wells of a microtiter plate having 6 wells per row. After removal of non-adherent cells, each row of the adherent macrophages was infected with 10-fold serial dilutions of HIV-I, with the use of polybrene to enhance uptake of the virus. After one to two hours, the virus inoculum was removed and replaced with fresh normal growth medium. The fresh medium for each row contained a particular concentration of AZT, dideoxy cytidine (ddC), or compound la, as indicated by the left-hand column of Table la(a). The first row of wells acted as a control, and to it was added fresh medium containing none of the three drugs. Medium levels were maintained for two to four weeks to allow replication of the virus to take place, with at least one complete fluid change to remove residual virus inoculum. The contents of each well were then tested for the level of HIV p24 antigen present using a commercially available antigen capture kit employing a radio-immunoassay which can detect as little as 10'^9gm of p24 present in a sample. The above procedure was done in duplicate runs.
The results were interpreted as follows: 2/2, for example, means that both the corresponding wells of both runs were positive for HIV-I p24, while 0/2 means that neither well was positive. The titers are given in the next to last column; where 1/2 wells was positive, an intermediate value was given to the titer that is half way between the two dilutions when calculated on a logarithmic scale. 3 µM IPA was positive in both wells at a dilution of 1/10,000 and in neither well at 1/100,000. Thus, one half log interval between 10^4 and 10^5 is 10^4.5, or 30,000.

[17] = tested on: T lymphocytes; test: Lymphocyte blastogenesis assay, T lymphocytes (PHA); format: cell-based, human; conditions: 100 - 1 µM (Figs. 11 and 12)
Experimental: as §5, §6, §7, §8

N=C(N)c1ccc(OCCCCCOc2ccc(C(=N)N)cc2)cc1 [Pentamidine, pentamidine, reference compound]
activity, cultivated bloodstream TRY [1]: + +
activity, mouse model [2]: + +
Activity, mouse/ hamster models [3]: -
Activity, mouse/ hamster models [4]: +
Activity, AM in mouse or human mos [5]: + +
Activity, AM in mouse or human mos [6]: +
activity, isolated bloodstream TRY [7]: + +
Activity, PRO [8]: + +
Activity, PRO [9]: + +
Activity, AM-PRO transform-ation [10]: + +
Activity, AM in cell lines [11]: +
Activity, AM in cell lines [12]: -
Activity, AM-PRO transform-ation [13]: + +

O.O.O.O.O.O.O.O.O.O=C([O-])[C@@H]1[O][Sb]2([O-])([O][Sb]34([OH])[O][C@H]([C@H](O)CO)[C@H]([O]3)[C@H](C(=O)[O-])[O]4)[O][C@H]([C@H](O)CO)[C@@H]1[O]2.[Na+].[Na+].[Na+] [Sodium stibogluconate, sodium stibogluconate, reference compound]
Activity, mouse/ hamster models [4]: + +
Activity, AM in mouse or human mos [5]: + +
Activity, AM in mouse or human mos [6]: + +
Activity, AM-PRO transform-ation [10]: + +

Cc1ccc(C(=O)Nc2ccc(S(=O)(=O)O)c3cc(S(=O)(=O)O)cc(S(=O)(=O)O)c23)cc1NC(=O)c1cccc(NC(=O)Nc2cccc(C(=O)Nc3cc(C(=O)Nc4ccc(S(=O)(=O)O)c5cc(S(=O)(=O)O)cc(S(=O)(=O)O)c45)ccc3C)c2)c1 [Suramin, suramin, reference compound]
activity, cultivated bloodstream TRY [1]: +
activity, mouse model [2]: + +
activity, isolated bloodstream TRY [7]: -,+
activity, procyclic TRY [14]: -

Nc1ccn([C@H]2CC[C@@H](CO)O2)c(=O)n1 [ddC, dideoxycytidine, reference compound]
reduction in B lymphocyte proliferative responses ([15]; 1 µM): 20 -35%
reduction in B lymphocyte proliferative responses ([15]; 1000 u.M): 80 to 85%
activity at 10 µM ([16]; Human immunodeficiency virus 1, Macrophage, drug 10 μM, titer relative to control, read-out: PERCENT OF CONTROL): 10%
activity at 100 µM ([16]; Human immunodeficiency virus 1, Macrophage, drug 100 μM, titer relative to control, read-out: PERCENT OF CONTROL): 3%
TITER ([16]; drug 10 μM): 10000
wells positive for HIV-I p24, LOG VIRUS DILUTION -1 ([16]; drug 10 μM): 2/2
wells positive for HIV-I p24, LOG VIRUS DILUTION -2 ([16]; drug 10 μM): 2/2
wells positive for HIV-I p24, LOG VIRUS DILUTION -3 ([16]; drug 10 μM): 2/2
wells positive for HIV-I p24, LOG VIRUS DILUTION -4 ([16]; drug 10 μM): 1/2
wells positive for HIV-I p24, LOG VIRUS DILUTION -5 ([16]; drug 10 μM): 0/2
wells positive for HIV-I p24, LOG VIRUS DILUTION -6 ([16]; drug 10 μM): 0/2
TITER ([16]; drug 100 μM): 3000
wells positive for HIV-I p24, LOG VIRUS DILUTION -1 ([16]; drug 100 μM): 2/2
wells positive for HIV-I p24, LOG VIRUS DILUTION -2 ([16]; drug 100 μM): 2/2
wells positive for HIV-I p24, LOG VIRUS DILUTION -3 ([16]; drug 100 μM): 2/2
wells positive for HIV-I p24, LOG VIRUS DILUTION -4 ([16]; drug 100 μM): 0/2
wells positive for HIV-I p24, LOG VIRUS DILUTION -5 ([16]; drug 100 μM): 0/2
wells positive for HIV-I p24, LOG VIRUS DILUTION -6 ([16]; drug 100 μM): 0/2
reduction in T lymphocyte function [17]: 10 - 25%
